Assay results published in US20100298434A1, “NEUROPROTECTION AND PREVENTION OF DOPAMINERGIC CELL DEATH BY TARGETING NUR77 TRANSLOCATION” (priority 2009, published 2010).

Key:
[1] = test system: nigral TH neurons; assay: MPTP lesions in mice, stereological counts of TH-immunoreactive neurons; format: in vivo; settings: Nur77 (+/+) mice, 7 i.p. injections MPTP-HCl 20 mg/kg, 14 days after last injection
Text: Wild-type (Nur77(+/+)) male (C57BL/6, weighing 20-25 g) mice were purchased from Charles River, Canada. Nur77 knockout (Nur77(−/−)) mice were developed and graciously provided by Dr Jeff Milbrandt at the Washington University, St. Louis, Mo., USA (Lee et al., 1995). These mice are healthy and reproduce normally (Crawford et al., 1995; Lee et al., 1995). They were produced in a mixed background and have been backcrossed into the C57BL/6 strain for at least ten generations to reduce genetic background heterogeneity (Jeff Milbrandt, personal communication). We maintain a Nur77(−/−) mouse colony at the animal care facility of our research center. Young adult Nur77(−/−) male mice weighing 20-25 g were used for present experiments. All mice were housed three or four per cage in a temperature-controlled environment and maintained under a 12-h light-dark cycle with ad libitum access to food and water.
In total, 17 mice (8 Nur77 (+/+) and 9 Nur77 (−/−)) received seven intraperitoneal (i.p.) injections of MPTP-HCl (20 mg/kg free base; Sigma, St. Louis, Mo.) dissolved in NaCl 0.9%. MPTP was administered twice on the first 2 days of the experimental protocol at an interval of 12 h and once a day on 3 subsequent days (Tremblay et al. 2006; Gibrat et al., 2010). […]
The loss of DA neurons was determined by counting TH-immunoreactive cells under bright-field illumination. […]

[2] = test system: PC12 cells; assay: LDH cytotoxicity in PC12 cells; format: cell-based
Procedure: They were cultured on Primaria 6-well plates (BD Falcon, Ontario, Canada) for RT-PCR experiments and immunoblotting; on Primaria 96-wells plates for LDH cytoxicity experiments and finally on poly-L-lysine-coated circular glass coverslips for immunocytofluorescence assays. Cells were fed fresh medium every 3 days and maintained at 37° C. in a humidified 5% CO2 atmosphere. […] Control conditions were without toxin.
Briefly, media were collected and centrifuged at 800×g at 4° C. for 2 min. The cell-free supernatant (100 μl) was then used to determine LDH activity by measuring the absorbance at a wavelength of 490 nm (A490) on a microplate reader (Multiscan Ascent Microplate reader, Thermolab System, Franklin Mass.) according to the working procedures of Roche's protocol. Total cellular LDH was determined by lysing cells with 1% Triton X-100.

[3] = test system: Nur77; assay: Nur77 subcellular distribution (nuclei-cytoplasmic fractioning, Western blot) in PC12 cells; format: cell-based, rat
Procedure: PC12 cells were obtained from ATCC CRL 1721 (VA, USA) and were grown in phenol red-free RPMI 1640 medium supplemented with 5% fetal calf serum (FCS), 10% horse serum and gentamicin (50 μg/ml). They were cultured on Primaria 6-well plates (BD Falcon, Ontario, Canada) for RT-PCR experiments and immunoblotting; on Primaria 96-wells plates for LDH cytoxicity experiments and finally on poly-L-lysine-coated circular glass coverslips for immunocytofluorescence assays. Cells were fed fresh medium every 3 days and maintained at 37° C. in a humidified 5% CO2 atmosphere. […] Control conditions were without toxin. […] For the present study, kinetic time periods were: 0 h, 3 h, 6 h, 9 h, 12 h and 24 h. After each experiment, culture medium was harvested for cytotoxicity detection and cells were collected for RT-PCR and ICF/Fractioning (Gelinas & Martinoli 2002; Gagne et al. 2003; Gelinas et al. 2004; Chiasson et al. 2006).
PC12 cells were grown and treated in 6-wells plates. We used a nuclear extraction kit (Active Motif, Carlsbad, Calif.) to separate cytoplasmic protein content from nuclear protein content. Briefly, cells were washed in wells with a mixture of PBS and phosphatase inhibitors, and then harvested in centrifuge tubes. Hypotonic buffer swelled cytoplasmic membrane, which an afterward mild detergent ruptured.
Centrifugation at 14,000×g pelleted the intact nuclei, and soluble material was preserved as the cytoplasmic fraction. Nuclei were the lysed with the provided lysis buffer. Protein dosage was performed with a bicinchoninic acid (BCA)-based SDS-compatible Protein Assay Kit (Pierce, Rockfort, Ill.) on each fraction of each sample.
Equal amounts of nuclei or cytoplasmic protein fractions were loaded onto a 10% polyacrylamide-SDS gel. After electrophoretic separation (180 volts, 45 min.) the polyacrylamide gels were transferred onto […] (PVDF) membranes (0.22 μm pore size, Bio-Rad) at 50 V for 2 h. The membranes were blocked with 5% non-fat powder milk for 1 h. […] Quantitative analysis was performed with the Fluor Chem SP software.

With `CN1CC=C(c2ccccc2)CC1` [MPTP, 1-methyl-4-phenyl-1,2,3,6-tetrahydropyridine] the “number of nigral TH neurons” value [1] was “significantly reduced”.
For `CCC(=C/[C@H](C)C/C=C/C(C)=C/[C@@H](C)C(=O)[C@@H](C)[C@H](O)[C@@H](C)C/C(C)=C/C(=O)O)/C=C/[C@@H]1OC(=O)C=C[C@@H]1C` [LMB, leptomycin B], the PC12 cell survival ([2]; LMB alone) was “no effect”, the “6-OHDA induced cell death” value ([2]; PC12 cells, co-incubation of LMB with 6-OHDA, 24 h) was “significant reduction” and the “6-OHDA-induced translocation of Nur77 from the nucleus to the cytosol” value ([3]; 6-OHDA 30 μM, co-incubation with LMB 1 nM) was “blocked”.
In the case of `CC/C=C\C/C=C\C/C=C\C/C=C\C/C=C\C/C=C\CCC(=O)O` [DHA, docosahexaenoic acid], the “cytotoxicity induced by 6-OHDA” value ([2]; PC12 cells, 6-OHDA 30 μM, co-incubation with DHA 10^−6 M) is reported as “significantly reduced” and the “cytotoxicity induced by MPP+” value ([2]; PC12 cells, MPP+ 5 mM, co-incubation with DHA 10^−6 M) is reported as “significantly reduced”.
In the case of `C[n+]1ccc(-c2ccccc2)cc1` [MPP+, 1-methyl-4-phenylpyridinium ion], the “beginning of Nur77 protein translocation from the nucleus to the cytosol” value ([3]; MPP+ 5 mM) is reported as 6 h.
